Measured values: the NIST ThermoML archive (doi:10.1021/acs.jced.8b00358)

Key:
[1] = 83 kPa, Liquid; for speed of sound: Frequency=3 MHz, Single path-length method; for mass density: Vibrating tube method
[2] = molar heat capacity at constant pressure; settings: 83 kPa, Liquid, DSC

CCCCCCC(=O)OCC(COC(=O)CCCCCC)(COC(=O)CCCCCC)COC(=O)CCCCCC [pentaerythritol tetraheptanoate]
Settings | mass density [kg/m3] | molar heat capacity at constant pressure [J/K/mol] | speed of sound [m/s]
[1], 278.15 K | 989.09 | – | 1435
[1], 283.15 K | 985.27 | – | 1417.7
[1], 288.15 K | 981.48 | – | 1400.7
[1], 293.15 K | 977.69 | – | 1383.8
[1], 298.15 K | 973.91 | – | 1367
[1], 303.15 K | 970.14 | – | 1350.3
[1], 308.15 K | 966.38 | – | 1333.9
[1], 313.15 K | 962.62 | – | 1317.8
[1], 318.15 K | 958.87 | – | 1301.9
[1], 323.15 K | 955.13 | – | 1286.1
[1], 328.15 K | 951.39 | – | 1270.4
[1], 333.15 K | 947.66 | – | 1254.9
[1], 338.15 K | 943.92 | – | 1239.6
[1], 343.15 K | 940.2 | – | 1224.5
[2], 293.14 K | – | 1059.1 | –
[2], 294.14 K | – | 1060.3 | –
[2], 295.14 K | – | 1062 | –
[2], 296.14 K | – | 1063.8 | –
[2], 297.14 K | – | 1065.6 | –
[2], 298.14 K | – | 1066.7 | –
[2], 299.14 K | – | 1068.5 | –
[2], 300.14 K | – | 1070.2 | –
[2], 301.14 K | – | 1071.4 | –
[2], 302.14 K | – | 1073.2 | –
[2], 303.14 K | – | 1074.9 | –
[2], 304.14 K | – | 1076.1 | –
[2], 305.14 K | – | 1077.8 | –
[2], 306.14 K | – | 1079 | –
[2], 307.14 K | – | 1080.8 | –
[2], 308.14 K | – | 1082.5 | –
[2], 309.14 K | – | 1083.7 | –
[2], 310.14 K | – | 1085.4 | –
[2], 311.14 K | – | 1086.6 | –
[2], 312.14 K | – | 1088.4 | –
[2], 313.14 K | – | 1090.1 | –
[2], 314.14 K | – | 1091.9 | –
[2], 315.14 K | – | 1093 | –
[2], 316.14 K | – | 1094.8 | –
[2], 317.14 K | – | 1096.5 | –
[2], 318.14 K | – | 1098.3 | –
[2], 319.14 K | – | 1099.5 | –
[2], 320.14 K | – | 1101.2 | –
[2], 321.14 K | – | 1103 | –
[2], 322.13 K | – | 1104.1 | –
[2], 323.14 K | – | 1105.9 | –
[2], 324.14 K | – | 1107.7 | –
[2], 325.14 K | – | 1108.8 | –
[2], 326.14 K | – | 1110.6 | –
[2], 327.14 K | – | 1112.3 | –
[2], 328.14 K | – | 1114.1 | –
[2], 329.14 K | – | 1115.8 | –
[2], 330.14 K | – | 1117 | –
[2], 331.14 K | – | 1118.8 | –
[2], 332.14 K | – | 1120.5 | –
[2], 333.14 K | – | 1121.7 | –
[2], 334.13 K | – | 1123.4 | –
[2], 335.14 K | – | 1125.2 | –
[2], 336.14 K | – | 1127 | –
[2], 337.14 K | – | 1128.1 | –
[2], 338.14 K | – | 1129.9 | –
[2], 339.14 K | – | 1131.6 | –
[2], 340.14 K | – | 1133.4 | –
[2], 341.13 K | – | 1134.6 | –
[2], 342.14 K | – | 1136.3 | –
[2], 343.14 K | – | 1138.1 | –
[2], 344.14 K | – | 1139.8 | –
[2], 345.13 K | – | 1141.6 | –
[2], 346.14 K | – | 1143.3 | –
[2], 347.14 K | – | 1145.1 | –
[2], 348.14 K | – | 1146.3 | –
[2], 349.14 K | – | 1148 | –
[2], 350.14 K | – | 1149.8 | –
[2], 351.14 K | – | 1151.5 | –
[2], 352.14 K | – | 1153.3 | –
[2], 353.14 K | – | 1154.4 | –
[2], 354.14 K | – | 1156.2 | –
[2], 355.14 K | – | 1158 | –
[2], 356.14 K | – | 1159.7 | –
[2], 357.14 K | – | 1160.9 | –
[2], 358.14 K | – | 1162.6 | –
[2], 359.14 K | – | 1164.4 | –
[2], 360.14 K | – | 1166.1 | –
[2], 361.14 K | – | 1167.9 | –
[2], 362.14 K | – | 1169.1 | –
[2], 363.14 K | – | 1170.8 | –
[2], 364.14 K | – | 1172.6 | –
[2], 365.14 K | – | 1174.3 | –
[2], 366.14 K | – | 1176.1 | –
[2], 367.14 K | – | 1177.3 | –
[2], 368.14 K | – | 1179 | –
[2], 369.14 K | – | 1180.8 | –
[2], 370.14 K | – | 1182.5 | –
[2], 371.14 K | – | 1184.3 | –
[2], 372.14 K | – | 1185.4 | –
[2], 373.14 K | – | 1187.2 | –
[2], 374.14 K | – | 1188.9 | –
[2], 375.14 K | – | 1190.7 | –
[2], 376.14 K | – | 1192.5 | –
[2], 378.14 K | – | 1196 | –
[2], 379.14 K | – | 1197.7 | –
[2], 380.14 K | – | 1198.9 | –
[2], 381.14 K | – | 1200.6 | –
[2], 382.14 K | – | 1202.4 | –
[2], 383.14 K | – | 1204.2 | –
[2], 384.14 K | – | 1205.9 | –
[2], 385.14 K | – | 1207.7 | –
[2], 386.14 K | – | 1209.4 | –
[2], 387.14 K | – | 1211.2 | –
[2], 388.14 K | – | 1212.9 | –
[2], 389.14 K | – | 1214.1 | –
[2], 390.14 K | – | 1215.9 | –
[2], 391.14 K | – | 1217.6 | –
[2], 392.14 K | – | 1219.4 | –
[2], 393.14 K | – | 1220.5 | –
[2], 394.14 K | – | 1222.3 | –
[2], 395.14 K | – | 1224 | –
[2], 396.14 K | – | 1225.2 | –
[2], 397.14 K | – | 1227 | –
[2], 398.14 K | – | 1228.7 | –
[2], 399.14 K | – | 1230.5 | –
[2], 400.14 K | – | 1232.2 | –
[2], 401.14 K | – | 1234 | –
[2], 402.14 K | – | 1235.7 | –
[2], 403.14 K | – | 1236.9 | –
[2], 404.14 K | – | 1238.7 | –
[2], 405.14 K | – | 1240.4 | –
[2], 406.14 K | – | 1242.2 | –
[2], 407.14 K | – | 1243.9 | –
[2], 408.14 K | – | 1245.7 | –
[2], 409.14 K | – | 1247.4 | –
[2], 410.14 K | – | 1248.6 | –
[2], 411.14 K | – | 1250.4 | –
[2], 412.13 K | – | 1252.1 | –
[2], 413.14 K | – | 1253.9 | –
[2], 414.13 K | – | 1255.6 | –
[2], 415.14 K | – | 1257.4 | –
[2], 416.14 K | – | 1258.5 | –
[2], 417.14 K | – | 1260.3 | –
